According to the NIST ThermoML archive (doi:10.1021/je500389t):
Numbers after ± are expanded uncertainties.

Key:
[1] = 101 kPa, Liquid; for viscosity: Capillary tube (Ostwald / Ubbelohde) method; for mass density: Pycnometric method
[2] = xn = mol fraction of the nth substance listed; settings: 101 kPa, Liquid, Capillary tube (Ostwald / Ubbelohde) method, x2 = 0

Structure (SMILES)	viscosity ([1]; 293.15 K) [mPa·s]	viscosity ([1]; 298.15 K) [mPa·s]	viscosity ([1]; 303.15 K) [mPa·s]	viscosity ([1]; 308.15 K) [mPa·s]	viscosity ([1]; 313.15 K) [mPa·s]	mass density ([1]; 293.15 K) [kg/m3]	mass density ([1]; 298.15 K) [kg/m3]	mass density ([1]; 303.15 K) [kg/m3]	mass density ([1]; 308.15 K) [kg/m3]	mass density ([1]; 313.15 K) [kg/m3]	viscosity ([2]; 293.15 K) [mPa·s]	viscosity ([2]; 298.15 K) [mPa·s]	viscosity ([2]; 303.15 K) [mPa·s]	viscosity ([2]; 308.15 K) [mPa·s]	viscosity ([2]; 313.15 K) [mPa·s]
O [water]	1.01 ± 0.04	0.89 ± 0.04	0.801 ± 0.04	0.723 ± 0.04	0.656 ± 0.04	–	–	–	–	–	–	–	–	–	–
COCCOCCOC [2,5,8-trioxanonane]	1.09 ± 0.04	0.998 ± 0.041	0.914 ± 0.04	0.834 ± 0.04	0.785 ± 0.04	945.2 ± 2	939.8 ± 2	935 ± 2	930.7 ± 2	925.4 ± 2	–	–	–	–	–
O [water] + COCCOCCOC	–	–	–	–	–	–	–	–	–	–	1.01 ± 0.04	0.89 ± 0.04	0.801 ± 0.04	0.723 ± 0.04	0.656 ± 0.04
